What was measured:
β-tubulin isotypes = details: cited from earlier work
cellular tubulin = details: cited from earlier work
[1] = test system: β-tubulin in white blood cells; assay: Western blot of white blood cells from rats after compound 1 infusion; format: in vivo, rat; details: 3 h infusion of compound 1 sodium salt, 20 mg/kg
Protocol: (§1) White blood cells (“WBC”) were isolated from blood samples (5 ml) taken immediately after a 3 h infusion of compound 1 sodium salt from rats or a human patient treated at 20 mg/kg and 220 mg/m2, respectively, as follows. The samples were mixed with 5 ml of PBS and layered on a Ficoll cushion (10 ml, “Lymphoprep” (density is ˜1.077 and osmolality 280 mOsm, Gibco/BRL). After centrifugation (1000 rpm, 30 min (Sorvall RC3C centrifuge)) at room temperature WBC were isolated from the cushion and the sample was diluted 1:5 with PBS. After centrifugation (2000 rpm for 10 min) the liquid was discarded and the cell pellet was resuspended in 1 ml of PBS. The solution was transferred to an Eppendorf tube and the cells were collected by centrifugation (3000 rpm, 5 min). After the supernatant was discarded the cell pellet was stored at −80° C. or processed as follows. Rat WBC-pellet was resuspended in 15 μl of IEF-buffer and mixed with 15 μl of 2× SDS sample buffer. The human sample was mixed immediately with an equal volume (10 μl) of SDS sample buffer. Protein samples ([…], human; 2 μl, rat) were analyzed by SDS-PAGE and subjected to western blot analyzes as outlined above.

[2] = test system: β-tubulin in white blood cells; assay: Western blot of white blood cells from a human patient after compound 1 infusion; format: in vivo
Protocol: as §1
As a standard 10 μg of purified brain tubulin was mixed with […] of BRB80 buffer and incubated with 10 μl of ^3H-compound 1 (10 μCi) in a 500 μl reaction at […] for 2 h. […]

## COc1ccc(NS(=O)(=O)c2c(F)c(F)c(F)c(F)c2F)cc1F [compound 1, 2-fluoro-1-methoxy-4-pentafluorophenylsulfonamidobenzene]
β-tubulin isotypes
  modification of other cellular proteins: no other cellular proteins are modified
β-tubulin isotypes; five known β-tubulin isotypes, β1, β2, β4 have Cys239, β3 and β5 have serine
  covalent modification of β-tubulin isotypes: binding is restricted to those β-tubulin isotypes that have a cysteine residue at amino acid position 239 in β-tubulin
Cellular tubulin
  binding to cellular tubulin: time- and concentration-dependent
[1]
  β-tubulin modification in white blood cells (western blot with 2C1H7): a protein consistent of the size of β-tubulin was visible
[2]; human WBC sample, compared with 3H-compound 1-β-tubulin standard curve
  amount of loaded tubulin modified by compound 1: ~7.5 fmol
[2]; human patient, 3 h infusion of compound 1 sodium salt, 220 mg/m2
  β-tubulin modification in white blood cells (western blot with 2C1H7): a protein consistent of the size of β-tubulin was visible

Reference: patent US20020106705A1, “Detection method for monitoring beta tubulin isotype specific modification” (Tularik Inc., priority 1999, published 2002)
